Laboratory results: patent US5232917A, “Methods, compositions, and compounds for allosteric modulation of the GABA receptor by members of the androstane and pregnane series” (priority 1991, dated 1993)
Where two headings read alike, the source gives them in different places.

What was measured:
progesterone receptor = molecular target: T1, progesterone receptor (Bos taurus, UniProt F1N712); test: Inhibition of 3H-progesterone binding to bovine uteral progesterone receptors
T1 construct: from tissue; host or cells: bovine uterus cytosol
T1 sequence (F1N712 1-914): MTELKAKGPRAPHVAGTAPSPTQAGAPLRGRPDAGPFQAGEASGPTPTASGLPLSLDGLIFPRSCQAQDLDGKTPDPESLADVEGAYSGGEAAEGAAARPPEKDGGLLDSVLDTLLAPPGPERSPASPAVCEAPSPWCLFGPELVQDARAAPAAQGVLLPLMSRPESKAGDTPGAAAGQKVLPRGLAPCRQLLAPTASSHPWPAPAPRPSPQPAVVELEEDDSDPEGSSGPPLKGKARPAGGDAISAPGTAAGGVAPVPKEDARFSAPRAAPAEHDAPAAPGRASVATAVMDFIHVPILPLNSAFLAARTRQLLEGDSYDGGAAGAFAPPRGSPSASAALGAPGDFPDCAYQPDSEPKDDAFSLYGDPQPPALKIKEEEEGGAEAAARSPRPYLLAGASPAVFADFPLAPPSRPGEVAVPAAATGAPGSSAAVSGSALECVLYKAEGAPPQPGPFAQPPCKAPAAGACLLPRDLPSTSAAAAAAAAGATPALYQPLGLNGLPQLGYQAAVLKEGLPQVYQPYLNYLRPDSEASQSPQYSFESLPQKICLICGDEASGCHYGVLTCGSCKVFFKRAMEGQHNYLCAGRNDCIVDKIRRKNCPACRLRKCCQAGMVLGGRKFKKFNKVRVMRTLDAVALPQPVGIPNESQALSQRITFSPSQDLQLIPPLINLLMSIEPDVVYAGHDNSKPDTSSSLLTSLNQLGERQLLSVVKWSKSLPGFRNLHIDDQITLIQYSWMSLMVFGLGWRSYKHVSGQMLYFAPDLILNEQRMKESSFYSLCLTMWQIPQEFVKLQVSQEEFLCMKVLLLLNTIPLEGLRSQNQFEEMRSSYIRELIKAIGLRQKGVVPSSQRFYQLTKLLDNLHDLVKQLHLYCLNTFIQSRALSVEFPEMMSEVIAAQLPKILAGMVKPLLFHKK
Outline: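 Bovine uterine cytosol served as the progesterone receptor source. Compounds were scored by their inhibition of ^3H-progesterone binding.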

[1] = tested on: number of light/dark transitions (anxiety); test: Light/dark transition test; assay type: in vivo, mice (male N.I.H. Swiss-Webster); conditions: for effect on number of light/dark transitions (words): 3α-OH-DHP 10, 20, 40 mg/kg, 5α-THDOC 20 mg/kg, diazepam 1.0, 5.0, 10, 20 mg/kg, 20 mg/kg
open-field activity = test: Open-field activity test; assay type: in vivo, mice (male N.I.H. Swiss-Webster); conditions: for total distance, open-field: 20 mg/kg, 10 min, vehicle 2004.6 ± 134.6; for effect on open-field activity: steroids 20 mg/kg, diazepam 10 mg/kg
Source text: The light/dark transition test (Crawley and Goodwin, 1980) is based on the observation that rodents naturally tend to explore novel environments, but open, brightly lit arenas are aversive to the rodents and inhibit exploratory behavior (Christmas and Maxwell, 1970; File, 1980). […] Similar to the light/dark transition test, the open-field test measures the antagonism between the tendency to explore a novel environment and the tendency to remain still in an aversive environment (brightly lit arena). […] The open-field test provides a simple, non-punished assessment of the potential anxiolytic properties of novel compounds. Finally, 3α-OH-DHP was tested for anxiolytic properties in a Vogel conflict paradigm. The ability of BZs to attenuate the suppression of behavior by punishment in conflict paradigms is well established (Gellar et al., 1962; Vogel et al., 1971).
Male N.I.H. Swiss-Webster mice (Harlan) weighing 15-20 g were used in all experiments. The mice were housed 4/cage in polyethylene cages with sawdust bedding. The colony room was environmentally controlled (22° C.) with a 12 hr. light/dark cycle (0600-1800 hrs.). The mice had free access to food and water. The experiments were run from 0700-1500 hrs. and groups were counterbalanced for time of day effects.
As a secondary measure of anxiolytic effects, naive mice were placed in the center of a large, brightly lit plexiglass box (42×42×30.5 cm) and the total distance traveled was measured during a 10 min. test period. […] The Digiscan Activity Monitor (Omnitech Electronics, Columbus, Ohio) includes 16 photobeams that surround the box. The activity monitor is linked to a computer through a Digiscan Analyzer (Omnitech Electronics) and the data is analyzed using the Integrated Lab Animal Monitoring System (Omnitech Electronics). The mice were administered drugs as described for light/dark transitions.
2-Hydroxypropyl β-cyclodextrin Diazepam and chlordiazepoxide are available from Sigma, Co. (St. Louis, Mo.). CGS-8216 was obtained from Ciba-Geigy (Summit, N.J.). All drugs were dissolved in 20% β-cyclodextrin in water and sonicated overnight. All drugs were administered intraperitoneally in a volume of 100 μL/20 g. CGS-8216 was administered subcutaneously in a volume of 100 μL/20 g.
The vehicle control data were analyzed across test days using an 1-way analysis of variance (ANOVA). […] The dose-response curves were then analyzed using an 1-way ANOVA, followed by Dunnett's t-test for individual comparisons between doses and control. The open-field and habituated locomotor data were analyzed using ANOVA followed by Dunnett's t-test. […] All data is expressed as the mean±S.E.M.

[2] = molecular target: GABA receptor-chloride ionophore complex (GR complex); test: [35S]TBPS binding modulation assay
[3] = read-out: % of inhibition of 3H-progesterone binding, A, competitor 10^-5 M, 0.15 nM 3H-progesterone
[4] = read-out: % of inhibition of 3H-progesterone binding, A, competitor 10^-6 M, 0.15 nM 3H-progesterone
[5] = read-out: % of inhibition of 3H-progesterone binding, B, competitor 10^-5 M, 0.25 nM 3H-progesterone
[6] = read-out: % of inhibition of 3H-progesterone binding, B, competitor 10^-6 M, 0.25 nM 3H-progesterone
[7] = read-out: IC50, inhibition of [35S]-TBPS binding, +5 μM GABA, in the presence of 5 μM GABA

CC(=O)[C@H]1CC[C@H]2[C@@H]3CC[C@H]4C[C@H](O)CC[C@]4(C)[C@H]3CC[C@]12C [Example 3α-OH-DHP, 3α-hydroxy-5α-pregnan-20-one]
inhibition at 10 µM (progesterone receptor; [3]): 41% | inhibition at 1 µM (progesterone receptor; [4]): 14% | inhibition at 10 µM (progesterone receptor; [5]): 40% | inhibition at 1 µM (progesterone receptor; [6]): 2% | number of transitions in 10 min (maximal effect) ([1]; 3α-OH-DHP 20 mg/kg i.p., FIG. 9): 70.2±4.3 transitions | effect on number of light/dark transitions (words) [1]: significant (p<0.01) increase | effect on number of light/dark transitions (words) ([1]; listed as α-OH-DHP): number of transitions was increased | total distance, open-field (open-field activity): 5344.9 ± 754.5 cm | effect on open-field activity (open-field activity): significant (p<0.01) increases in activity | IC50 [2, 7]: 38 nM | IC50 ([2]; read-out: IC50, inhibition of [35S]-TBPS binding, No GABA, washed synaptoneurosomes, no GABA added): 230 nM

C[C@]12CC[C@@H](O)C[C@@H]1CC[C@@H]1[C@@H]2CC[C@]2(C)[C@@H](C(=O)CO)CC[C@@H]12 [Example 5α-THDOC, 3α,21-dihydroxy-5α-pregnan-20-one]
inhibition at 10 µM (progesterone receptor; [3]): 35% | inhibition at 1 µM (progesterone receptor; [4]): 13% | inhibition at 10 µM (progesterone receptor; [5]): 28% | inhibition at 1 µM (progesterone receptor; [6]): 5% | effect on number of light/dark transitions (words) [1]: significantly different from vehicle | number of transitions in 10 min ([1]; 5α-THDOC 10 mg/kg i.p., vehicle 35.2±2.0, p<0.06, FIG. 10): 49.4±2.0 transitions | effect on number of light/dark transitions at the highest dose ([1]; 5α-THDOC 40 mg/kg, p<0.05 vs vehicle): significant decrease | total distance, open-field (open-field activity): 7328.4 ± 769.5 cm | effect on open-field activity (open-field activity): significant (p<0.01) increases in activity | IC50 [2, 7]: 80 nM | Max. Inhib., maximal % of specifically bound [35S]-TBPS displaced ([2]; saturating concentrations of test compound): 100%
